Assay: xn = mol fraction of the nth substance listed

CNC(=O)NC + O
101 kPa
Settings | viscosity [mPa·s]
293.15 K, x1 = 0.000596 | 1.045
293.15 K, x1 = 0.06729 | 2.325
293.15 K, x1 = 0.08722 | 2.805
298.15 K, x1 = 0.1358 | 3.535
298.15 K, x1 = 0.2199 | 5.955
303.15 K, x1 = 0.08722 | 2.055
308.15 K, x1 = 0.11 | 2.135
308.15 K, x1 = 0.1358 | 2.545
313.15 K, x1 = 0.1358 | 2.195

COC(C)=O + CC(O)CO
Settings | viscosity [mPa·s]
298.15 K, 101 kPa, x1 = 0.251 | 12.35

CCC(C)=O + CN(C)C=O
298.15 K, 101 kPa
Settings | viscosity [mPa·s]
x2 = 0.0395 | 0.387
x2 = 0.0843 | 0.403
x2 = 0.1186 | 0.414
x2 = 0.1681 | 0.43
x2 = 0.2276 | 0.451
x2 = 0.2773 | 0.471
x2 = 0.3768 | 0.499
x2 = 0.5116 | 0.547
x2 = 0.6168 | 0.581
x2 = 0.7438 | 0.662
x2 = 0.8079 | 0.698

COc1ccccc1N + OCCc1ccccc1
viscosity [mPa·s], 100 kPa
Settings | x1 = 0.0957 | x1 = 0.1852 | x1 = 0.2904 | x1 = 0.3921 | x1 = 0.4911 | x1 = 0.6027 | x1 = 0.7023 | x1 = 0.8005 | x1 = 0.8904
303.15 K | 8.66 | 8.29 | 7.87 | 7.45 | 7.04 | 6.58 | 6.17 | 5.76 | 5.38
308.15 K | 6.95 | 6.71 | 6.43 | 6.16 | 5.9 | 5.6 | 5.33 | 5.06 | 4.82
313.15 K | 5.91 | 5.75 | 5.55 | 5.36 | 5.18 | 4.97 | 4.77 | 4.58 | 4.41
318.15 K | 4.89 | 4.8 | 4.69 | 4.58 | 4.47 | 4.35 | 4.23 | 4.12 | 4.02

CCC(C)=O + CCCCCCO
viscosity [mPa·s], 100 kPa
Settings | x1 = 0.0791 | x1 = 0.1639 | x1 = 0.2389 | x1 = 0.3481 | x1 = 0.4401 | x1 = 0.5609 | x1 = 0.6516 | x1 = 0.7391 | x1 = 0.8511 | x1 = 0.9382
293.15 K | 3.8 | 2.9 | 2.29 | 1.69 | 1.3 | 0.93 | 0.75 | 0.57 | 0.41 | 0.4
303.15 K | 2.95 | 2.28 | 1.87 | 1.42 | 1.09 | 0.81 | 0.7 | 0.58 | 0.47 | 0.41
313.15 K | 2.28 | 1.8 | 1.49 | 1.15 | 0.92 | 0.72 | 0.6 | 0.51 | 0.42 | 0.37
323.15 K | 1.8 | 1.46 | 1.21 | 0.96 | 0.79 | 0.62 | 0.52 | 0.45 | 0.37 | 0.34

C1CCCCC1 + CCCCCC
Settings | viscosity [mPa·s]
298.1 K, 101 kPa, x1 = 0.2 | 0.356
298.1 K, 101 kPa, x1 = 0.4 | 0.409
298.1 K, 101 kPa, x1 = 0.5 | 0.442
298.1 K, 101 kPa, x1 = 0.6 | 0.484
298.1 K, 101 kPa, x1 = 0.8 | 0.609
298.15 K, 100 kPa, x1 = 0.201 | 0.34
298.15 K, 100 kPa, x1 = 0.4 | 0.4016
298.15 K, 100 kPa, x1 = 0.6 | 0.4934
298.15 K, 100 kPa, x1 = 0.8 | 0.6328
298.15 K, 101 kPa, x2 = 0.0684 | 0.791
298.15 K, 101 kPa, x2 = 0.1504 | 0.6857
298.15 K, 101 kPa, x2 = 0.212 | 0.6386
298.15 K, 101 kPa, x2 = 0.2942 | 0.5608
298.15 K, 101 kPa, x2 = 0.3691 | 0.5182
298.15 K, 101 kPa, x2 = 0.4469 | 0.4531
298.15 K, 101 kPa, x2 = 0.5365 | 0.4026
298.15 K, 101 kPa, x2 = 0.5903 | 0.3809
298.15 K, 101 kPa, x2 = 0.6702 | 0.3605
298.15 K, 101 kPa, x2 = 0.7634 | 0.3153
298.15 K, 101.33 kPa, x1 = 0.0907 | 0.3272
298.15 K, 101.33 kPa, x1 = 0.0958 | 0.317
298.15 K, 101.33 kPa, x1 = 0.1714 | 0.3405
298.15 K, 101.33 kPa, x1 = 0.1981 | 0.341
298.15 K, 101.33 kPa, x1 = 0.274 | 0.3831
298.15 K, 101.33 kPa, x1 = 0.2742 | 0.367
298.15 K, 101.33 kPa, x1 = 0.2966 | 0.367
298.15 K, 101.33 kPa, x1 = 0.3645 | 0.4001
298.15 K, 101.33 kPa, x1 = 0.3986 | 0.397
298.15 K, 101.33 kPa, x1 = 0.4469 | 0.4276
298.15 K, 101.33 kPa, x1 = 0.4498 | 0.4234
298.15 K, 101.33 kPa, x1 = 0.4972 | 0.436
298.15 K, 101.33 kPa, x1 = 0.533 | 0.4643
298.15 K, 101.33 kPa, x1 = 0.5873 | 0.4846
298.15 K, 101.33 kPa, x1 = 0.5972 | 0.484
298.15 K, 101.33 kPa, x1 = 0.6062 | 0.5023
298.15 K, 101.33 kPa, x1 = 0.6783 | 0.5445
298.15 K, 101.33 kPa, x1 = 0.6988 | 0.544
298.15 K, 101.33 kPa, x1 = 0.752 | 0.5887
298.15 K, 101.33 kPa, x1 = 0.7542 | 0.5997
298.15 K, 101.33 kPa, x1 = 0.7993 | 0.623
298.15 K, 101.33 kPa, x1 = 0.8297 | 0.6872
298.15 K, 101.33 kPa, x1 = 0.8977 | 0.73
298.15 K, 101.33 kPa, x1 = 0.9016 | 0.7533
298.15 K, 101.33 kPa, x1 = 0.9034 | 0.7347
298.15 K, 101.33 kPa, x1 = 0.9721 | 0.8499
303.15 K, 101 kPa, x1 = 0.1086 | 0.2975
303.15 K, 101 kPa, x1 = 0.2169 | 0.3225
303.15 K, 101 kPa, x1 = 0.3006 | 0.3441
303.15 K, 101 kPa, x1 = 0.4057 | 0.3765
303.15 K, 101 kPa, x1 = 0.5025 | 0.4141
303.15 K, 101 kPa, x1 = 0.6021 | 0.4621
303.15 K, 101 kPa, x1 = 0.7058 | 0.5242
303.15 K, 101 kPa, x1 = 0.7982 | 0.5925
303.15 K, 101 kPa, x1 = 0.8984 | 0.6941
303.15 K, 101.33 kPa, x1 = 0.0958 | 0.301
303.15 K, 101.33 kPa, x1 = 0.1981 | 0.324
303.15 K, 101.33 kPa, x1 = 0.2966 | 0.349
303.15 K, 101.33 kPa, x1 = 0.3986 | 0.378
303.15 K, 101.33 kPa, x1 = 0.4972 | 0.412
303.15 K, 101.33 kPa, x1 = 0.5972 | 0.454
303.15 K, 101.33 kPa, x1 = 0.6988 | 0.511
303.15 K, 101.33 kPa, x1 = 0.7993 | 0.58
303.15 K, 101.33 kPa, x1 = 0.8977 | 0.672
308.15 K, 101.33 kPa, x1 = 0.0958 | 0.288
308.15 K, 101.33 kPa, x1 = 0.1981 | 0.307
308.15 K, 101.33 kPa, x1 = 0.2966 | 0.33
308.15 K, 101.33 kPa, x1 = 0.3986 | 0.357
308.15 K, 101.33 kPa, x1 = 0.4972 | 0.389
308.15 K, 101.33 kPa, x1 = 0.5972 | 0.428
308.15 K, 101.33 kPa, x1 = 0.6988 | 0.479
308.15 K, 101.33 kPa, x1 = 0.7993 | 0.543
308.15 K, 101.33 kPa, x1 = 0.8977 | 0.623
323.15 K, 100 kPa, x1 = 0.201 | 0.266
323.15 K, 100 kPa, x1 = 0.4 | 0.309
323.15 K, 100 kPa, x1 = 0.6 | 0.3703
323.15 K, 100 kPa, x1 = 0.8 | 0.4573

Reference: the CheMixHub viscosity set
